# Assays:
# Assay type in all cases: in vivo
# [1] = tested on: Zea mays (corn), cv. 'Lorenzo'; assay: Post-emergence application of herbicide H3 (glufosinate-ammonium) and safener by the tank mix method: crop damage; conditions: for Safener action as % damage reduction in crop plants: ZEAMA, versus herbicide alone
# Text: (§1) Seeds of various crop plants and weed species were sown in sandy loam soil in round plastic pots of a diameter of 13 cm and covered with a layer of sandy loam of a thickness of about 1 cm. The pots were placed in a greenhouse under favorable growth conditions for a duration of about two to three weeks, allowing the plants to reach a growth stage of 2 to 4 leaves. The herbicides, in the form of liquid (for example emulsion concentrates, aqueous solutions) or dry (for example water-dispersible powders) formulations, were diluted with deionized water to the required concentrations and applied to the green parts of the plants and the uncovered part of the surface of the soil with a spray bar using a water application rate of 300 liters per hectare. In the experiment shown below, the safeners were used as 20 percent strength water-dispersible powders and the herbicide glufosinate-ammonium as a commercial 20 percent strength aqueous surfactant-containing solution (results see table 1.2.2).
# (§2) The pots were placed in a greenhouse under favorable growth conditions. Visual scoring of the herbicidal action was carried out four weeks after the herbicidal application. Evaluation was carried out on a percentage basis by comparison with untreated control plants (0%=no noticeable effect compared with the untreated plant, 100%=treated plant dies).
# [2] = tested on: Chenopodium album; assay: Post-emergence application of herbicide H3 (glufosinate-ammonium) and safener by the tank mix method: herbicidal action; conditions: four weeks
# Text: as §1, §2
# [3] = tested on: Amaranthus retroflexus; assay: as above; conditions: four weeks
# Text: as §1, §2
# [4] = tested on: Zea mays (corn), cv. 'Lorenzo'; assay: Pre-emergence application of herbicide H1 (isoxaflutole) after seed dressing with safener; conditions: for Safener action as % damage reduction in crop plants: ZEAMA, versus untreated seed; for % damage in ZEAMA: four weeks
# Description: (§3) The number of crop plant seeds required for each application rate of safener was calculated. Sufficient seeds were weighed-out into glass bottles having a screw-on lid. The volume of the glass bottles was approximately twice that of the seeds weighed out.
# (§4) The safeners were formulated as 20 percent strength water-dispersible powders. These formulations were weighed out to give the required application rates (g of a.i./kg of seed). The samples were added to the seed in the glass containers, and sufficient water to form a suitable seed dressing was then added. The glass bottles were closed and then mounted in an overhead shaker (which turns the bottles at moderate speed for a period of up to one hour) so that the seeds were uniformly covered with the seed dressing. The bottles were opened and the seed was ready for use in pre-emergence or post-emergence experiments, as described below.
# (§5) The seeds which had been treated with safeners and untreated seeds as controls were sown in sandy loam soil in round plastic pots of a diameter of 13 cm and covered with a layer of sandy loam of a thickness of about 1 cm. The herbicides in the form of liquid (for example emulsion concentrates) or dry (for example water-dispersible powders) formulations were diluted with deionized water to the required concentrations and applied to the surface of the soil with a spray bar using a water application rate of 300 liters per hectare. In the two experiments shown below (results see tables 2.2.1 and 2.2.2), the herbicide isoxaflutole was used as an aqueous suspension concentrate.
# as §2, with “after the herbicide application. Evaluation” for “after the herbicidal application. Evaluation”
# [5] = tested on: Glycine max (soybean), cv. 'Lambert'; assay: as above; conditions: for Safener action as % damage reduction in crop plants: GLXMA, versus untreated seed; for % damage in GLXMA: four weeks
# Description: as §3, §4, §5
# as §2, with “after the herbicide application. Evaluation” for “after the herbicidal application. Evaluation”
# [6] = tested on: Chenopodium album; assay: Pre-emergence application of herbicide H1 (isoxaflutole) and safener by the tank mix method: herbicidal action; conditions: four weeks
# Description: (§6) Seeds of various crop plants and weed species were sown in sandy loam soil in round plastic pots of a diameter of 13 cm and covered with a layer of sandy loam of a thickness of about 1 cm. Herbicides and safeners in the form of liquid (for example emulsion concentrates) or dry (for example water-dispersible powders) formulations were diluted with deionized water to the required concentrations and applied to the surface of the soil with a spray bar using a water application rate of 300 liters per hectare. In the experiment shown below, the safeners were used as 20 percent strength water-dispersible powders and the herbicide isoxaflutole was used as an aqueous suspension concentrate (see table 1.1.1). The pots were placed in a greenhouse under favorable growth conditions. Visual scoring of the herbicidal action was carried out four weeks after the herbicide application. Evaluation was carried out on a percentage basis by comparison with untreated control plants (0%=no noticeable effect compared with the untreated plant, 100%=treated plant dies).
# [7] = tested on: Setaria viridis; assay: as above; conditions: four weeks
# Description: as §6
# [8] = tested on: Zea mays (corn), cv. 'Lorenzo'; assay: Post-emergence application of herbicide H2 (foramsulfuron) after seed dressing with safener; conditions: for Safener action as % damage reduction in crop plants: ZEAMA, versus untreated seed; for % damage in ZEAMA: four weeks
# Description: The number of crop plant seeds required for each application rate of safener was calculated. Sufficient seeds were weighed-out into glass bottles having a screw-on lid. The volume of the glass bottles was approximately twice that of the seeds weighed out. The safeners were formulated as 20 percent strength water-dispersible powders. These formulations were weighed out to give the required application rates (g of a.i./kg of seed). The samples were added to the seed in the glass containers, and sufficient water to form a suitable seed dressing was then added. The glass bottles were closed and then mounted in an overhead shaker (which turns the bottles at moderate speed for a period of up to one hour) so that the seeds were uniformly covered with the seed dressing. The bottles were opened and the seed was ready for use in pre-emergence or post-emergence experiments, as described below. The seeds treated with safener and untreated seeds were sown in sandy loam soil in round plastic pots of a diameter of 13 cm and covered with a layer of sandy loam of a thickness of about 1 cm. The pots were placed in a greenhouse under favorable growth conditions for a period of about two to three weeks, allowing the plants to reach a growth stage of 2 to 4 leaves. The herbicides in the form of liquid (for example emulsion concentrates) or dry (for example water-dispersible powders) formulations were mixed with a standard additive (based on rapeseed oil methyl ester), diluted with deionized water to the required concentrations and applied to the green parts of the plants and the uncovered part of the soil surface with a spray bar using a water application rate of 300 liters per hectare. In the experiment shown below, the herbicide foramsulfuron was used as 20 percent strength water-dispersible powder (results see table 2.3.1). The pots were placed in a greenhouse under favorable growth conditions. Visual scoring of the herbicidal action was carried out four weeks after the herbicide application. Evaluation was carried out on a percentage basis by comparison with untreated control plants (0%=no noticeable effect compared with the untreated plant, 100%=treated plant dies).
# [9] = tested on: Zea mays (corn), cv. 'Lorenzo'; assay: Post-emergence application of herbicide H2 (foramsulfuron) and safener by the tank mix method: crop damage; conditions: for Safener action as % damage reduction in crop plants: ZEAMA, versus herbicide alone
# Text: (§7) Seeds of various crop plants and weed species were sown in sandy loam soil in round plastic pots of a diameter of 13 cm and covered with a layer of sandy loam of a thickness of about 1 cm. The pots were placed in a greenhouse under favorable growth conditions for a period of about two to three weeks, allowing the plants to reach a growth stage of 2 to 4 leaves. The herbicides in the form of liquid (for example emulsion concentrates) or dry (for example water-dispersible powders) formulations were mixed with a standard additive (based on rapeseed oil methyl ester), diluted with deionized water to the required concentrations and applied to the green parts of the plants and the uncovered part of the soil surface with a spray bar using a water application rate of 300 liters per hectare. In the experiment shown below, safener and the herbicide foramsulfuron were in each case used as 20 percent strength water-dispersible powder (results see table 1.2.1). The pots were placed in a greenhouse under favorable growth conditions. Visual scoring of the herbicidal action was carried out four weeks after the herbicide application. Evaluation was carried out on a percentage basis by comparison with untreated control plants (0%=no noticeable effect compared with the untreated plant, 100%=treated plant dies).
# [10] = tested on: Zea mays (corn), cv. 'Lorenzo'; assay: Pre-emergence application of herbicide H1 (isoxaflutole) and safener by the tank mix method: crop damage; conditions: for Safener action as % damage reduction in crop plants: ZEAMA, versus herbicide alone
# Description: as §6
# [11] = tested on: Setaria viridis; assay: Post-emergence application of herbicide H2 (foramsulfuron) and safener by the tank mix method: herbicidal action; conditions: four weeks
# Text: as §7
# [12] = tested on: Amaranthus retroflexus; assay: as above; conditions: four weeks
# Text: as §7
# [13] = safener 250 g a.i./ha + herbicide H3 (glufosinate-ammonium) 250 g a.i./ha, post-emergence tank mix
# [14] = safener 250 g a.i./ha + herbicide H3 (glufosinate-ammonium) 250 g a.i./ha, post-emergence tank mix, visual scoring four weeks after application
# [15] = seed dressing with safener 1 g a.i./kg of seed, herbicide H1 (isoxaflutole) 100 g a.i./ha pre-emergence
# [16] = seed dressing with safener 1 g a.i./kg of seed, then herbicide H1 (isoxaflutole) 100 g a.i./ha pre-emergence
# [17] = safener 250 g a.i./ha + herbicide H1 (isoxaflutole) 100 g a.i./ha, pre-emergence tank mix
# [18] = seed dressing with safener 1 g a.i./kg of seed, herbicide H2 (foramsulfuron) 40 g a.i./ha post-emergence
# [19] = seed dressing with safener 1 g a.i./kg of seed, then herbicide H2 (foramsulfuron) 40 g a.i./ha post-emergence
# [20] = safener 250 g a.i./ha + herbicide H2 (foramsulfuron) 40 g a.i./ha, post-emergence tank mix
# [21] = safener 250 g a.i./ha + herbicide H2 (foramsulfuron) 40 g a.i./ha, post-emergence tank mix, visual scoring four weeks after application
# [22] = safener 250 g a.i./ha + herbicide H1 (isoxaflutole) 100 g a.i./ha, pre-emergence tank mix, visual scoring four weeks after application, 0%=no effect, 100%=plant dies
# [23] = untreated seed (no safener), herbicide H1 (isoxaflutole) 100 g a.i./ha pre-emergence
# [24] = herbicide H1 (isoxaflutole) 100 g a.i./ha alone, no safener, pre-emergence
# [25] = herbicide H2 (foramsulfuron) 40 g a.i./ha alone, no safener, post-emergence
# [26] = herbicide H3 (glufosinate-ammonium) 250 g a.i./ha alone, no safener, post-emergence
structure (smiles),measurement,setting,value
"O=C(O)C=Cc1ccccc1O [Comp. 17, 2-hydroxycinnamic acid]",Safener action as % damage reduction in crop plants,[1]; [13],61%
same,% damage in ZEAMA,[1]; [14],24%
same,Herbicidal action as % damage in CHEAL,[2]; [13],97%
same,Herbicidal action as % damage in AMARE,[3]; [13],95%
same,Safener action as % damage reduction in crop plants,[4]; [15],68%
same,% damage in ZEAMA,[4]; [16],8%
same,Safener action as % damage reduction in crop plants,[5]; [15],60%
same,% damage in GLXMA,[5]; [16],33%
same,Herbicidal action as % damage in CHEAL,[6]; [17],94%
same,Herbicidal action as % damage in SETVI,[7]; [17],96%
same,Safener action as % damage reduction in crop plants,[8]; [18],81%
same,% damage in ZEAMA,[8]; [19],6%
same,Safener action as % damage reduction in crop plants,[9]; [20],78%
same,% damage in ZEAMA,[9]; [21],8%
same,Safener action as % damage reduction in crop plants,[10]; [17],82%
same,% damage in ZEAMA,[10]; [22],5%
same,Herbicidal action as % damage in SETVI,[11]; [20],98%
same,Herbicidal action as % damage in AMARE,[12]; [20],94%
"O=C(O)C=Cc1ccccc1F [Comp. 146, 2-fluorocinnamic acid]",Safener action as % damage reduction in crop plants,[9]; [20],72%
same,% damage in ZEAMA,[9]; [21],10%
same,Herbicidal action as % damage in SETVI,[11]; [20],92%
same,Herbicidal action as % damage in AMARE,[12]; [20],98%
"COc1ccc(C=CC(=O)O)cc1 [Comp. 154, 4-methoxycinnamic acid]",Safener action as % damage reduction in crop plants,[9]; [20],67%
same,% damage in ZEAMA,[9]; [21],12%
same,Herbicidal action as % damage in SETVI,[11]; [20],95%
same,Herbicidal action as % damage in AMARE,[12]; [20],96%
"O=C(O)C=Cc1ccc(Cl)cc1Cl [Comp. 155, 2,4-dichlorocinnamic acid]",Safener action as % damage reduction in crop plants,[1]; [13],66%
same,% damage in ZEAMA,[1]; [14],21%
same,Herbicidal action as % damage in CHEAL,[2]; [13],92%
same,Herbicidal action as % damage in AMARE,[3]; [13],94%
same,Safener action as % damage reduction in crop plants,[4]; [15],72%
same,% damage in ZEAMA,[4]; [16],7%
same,Safener action as % damage reduction in crop plants,[5]; [15],64%
same,% damage in GLXMA,[5]; [16],30%
same,Herbicidal action as % damage in CHEAL,[6]; [17],95%
same,Herbicidal action as % damage in SETVI,[7]; [17],95%
same,Safener action as % damage reduction in crop plants,[8]; [18],88%
same,% damage in ZEAMA,[8]; [19],4%
same,Safener action as % damage reduction in crop plants,[9]; [20],83%
same,% damage in ZEAMA,[9]; [21],6%
same,Safener action as % damage reduction in crop plants,[10]; [17],74%
same,% damage in ZEAMA,[10]; [22],7%
same,Herbicidal action as % damage in SETVI,[11]; [20],95%
same,Herbicidal action as % damage in AMARE,[12]; [20],98%
"CCOC(=O)C=Cc1cccc(O)c1 [Comp. 191, ethyl 3-hydroxycinnamate]",Safener action as % damage reduction in crop plants,[9]; [20],56%
same,% damage in ZEAMA,[9]; [21],16%
same,Herbicidal action as % damage in SETVI,[11]; [20],96%
same,Herbicidal action as % damage in AMARE,[12]; [20],99%
"CS(=O)(=O)c1cc(C(F)(F)F)ccc1C(=O)c1cnoc1C1CC1 [Herbicide H1, isoxaflutole, reference compound]",% damage in ZEAMA,[4]; [23],25%
same,% damage in GLXMA,[5]; [23],83%
same,Herbicidal action as % damage in CHEAL,[6]; [24],92%
same,Herbicidal action as % damage in SETVI,[7]; [24],95%
same,% damage in ZEAMA,"[10]; herbicide H1 (isoxaflutole) 100 g a.i./ha alone, no safener, pre-emergence, four weeks",27%
"COc1cc(OC)nc(NC(=O)NS(=O)(=O)c2cc(NC=O)ccc2C(=O)N(C)C)n1 [Herbicide H2, foramsulfuron, reference compound]",% damage in ZEAMA,"[8]; untreated seed (no safener), herbicide H2 (foramsulfuron) 40 g a.i./ha post-emergence",32%
same,% damage in ZEAMA,"[9]; herbicide H2 (foramsulfuron) 40 g a.i./ha alone, no safener, post-emergence, four weeks",36%
same,Herbicidal action as % damage in SETVI,[11]; [25],95%
same,Herbicidal action as % damage in AMARE,[12]; [25],94%
"CP(=O)(O)CCC(N)C(=O)O (stereo not drawn) [Herbicide H3, glufosinate-ammonium, reference compound]",% damage in ZEAMA,"[1]; herbicide H3 (glufosinate-ammonium) 250 g a.i./ha alone, no safener, post-emergence, four weeks",62%
same,Herbicidal action as % damage in CHEAL,[2]; [26],92%
same,Herbicidal action as % damage in AMARE,[3]; [26],90%

# Reference: patent publication US7838463B2, “Safeners based on acrylic-aliphatic carboxylic acid derivatives” (Bayer CropScience AG, priority 2003, dated 2010)
